# Results reported in patent US10774049B2, “PU.1 inhibitors” (Albert Einstein College of Medicine, priority 2016, dated 2020).
# Counter-ions that a name gives are not always drawn.
# Legend:
# [1] = system: PU.1 occupancy on E2f1, Junb and Csf1r promoters; experiment: Chromatin immunoprecipitation of PU.1 on target promoters in AML cells; format: cell-based; conditions: ChIP
# Description: FIG. 3A-3G. Novel inhibitors show on-target PU.1 inhibitory activity. (A) Quantitative RT-PCR analysis of Csf1r, Junb, Sfpi1, E2f1 expression after 72 h (n=6) and, for Csf1r, after 1 h (n=3), 4 h (n=7), 8 h (n=3) and 24 h (n=3) of treatment with the small molecules in URE−/− cells, expression is normalized to GAPDH expression. Data represent means±SD of technical triplicate from one representative experiment; fold change compared to Vehicle is shown. (B) Chromatin immunoprecipitation assay showing PU.1 occupancy on E2f1, Junb, Csf1r promoters after treatment in Umsh cell line (n=5). 10·10^6 cells were collected for each condition after 8 h treatment with a double dose of the small molecules (50 uM for DB1976, 1.4 uM for DB2115 and 660 nM for DB2313) or Vehicle; and processed for ChIP using PU.1 monoclonal antibody. Myogenin was used as a negative control, not regulated by PU.1. Data represent means±SD of technical triplicate from one representative experiment. (C) Cell viability after PU.1 rescue in MOLM13 cells. MOLM13 were transduced with a lentiviral construct expressing either PU.1-GFP (PU.1, black bar) or GFP as a control (empty, white bar), sorted on GFP and plated with DB1976 (n=7), DB2115 (n=8), DB2313 (n=6) or Vehicle. Cell count was performed after 4 days. Data represent means±SD of technical triplicate from one representative experiment; fold change compared to Vehicle is shown. (D-G) Transcriptome analysis of URE−/− cells after 24 h of treatment with DB2313 versus vehicle (n=3). Differentially expressed genes were determined with a fold change at 1.2 and a P value <0.1. […] Deregulated gens in PUER cells were analyzed with a FC at 1.5 and P-value <0.05. […] P-value was calculated using the hypergeometric test. […]
# To assess on-target activity of our inhibitors in AML cells, we measured transcript levels of well-known PU.1 targets in PU.1 URE^−/− AML cells. […] As Csf1r is one of the most sensitive PU.1 targets in myeloid cells, we assessed its expression at different time points (1 h, 4 h, 8 h and 24 h) after drug treatment. […]
# primary human AML cells = experiment: Primary human AML mononuclear cells in semi-solid media (viable cells, colonies, apoptosis); format: cell-based; conditions: for mean decrease in number of viable cells / mean decrease of clonogenic capacity: in comparison to vehicle; for average increase of apoptotic cell fraction: vs vehicle
# Description: FIG. 4A-4G. PU.1 inhibition decreases cell growth and increases apoptosis of primary human AML cells. (A-C) Transduced GFP+ human primary mononuclear AML cells were plated in semi-solid media (150 000 cells per ml of methyl); colony number, number of viable cells and apoptotic cells were assessed after 14 days of culture. (A, B) Clonogenic capacities and number of viable cells after transduction with shPU.1_1 and shPU.1_2 (n=7). (C) Apoptotic cells (Annexin-V+Dapi−) fraction after transduction with shPU.1_1 and shPU.1_2 (n=7). (D-F) Human primary mononuclear AML cells were plated in semi-solid media (150 000 cells per ml of methyl) containing the PU.1 inhibitors DB1976, DB2115 and DB2313; colony number, number of viable cells and apoptotic cells were assessed after 14 days of culture. (D-E) Clonogenic capacities (n=9) and number of viable cells (n=8) after treatment. (F) Apoptotic cells (Annexin-V+Dapi−) fraction after treatment (n=8). […] (A-G) Data represent means±SD, each AML sample is represented by an individual dot. Fold change compared to shCtrl or Vehicle is shown.
# To determine whether PU.1 inhibition has an effect on primary cells from AML patients, we seeded mononuclear cells from AML patients in semi-solid media for 2 weeks and assessed the number of colonies, the number of viable cells and the proportion of apoptotic cells. […] At the same time, the proportion of apoptotic cells increased on average of 2-fold upon knockdown of PU.1 in primary human AML cells with the more efficient shRNA (shPU.1_2) (FIG. 1F).
# We also explored the effect of the small molecule PU.1 inhibitors on primary human AML cells, and treated 11 samples from AML patients with PU.1 inhibitors. PU.1 inhibitors led to significant decreases in the number of viable cells (mean decrease: 81% for DB1976, 68% for DB2115, 72% for DB2313) (FIG. 3E), and clonogenic capacity (mean decrease of 36% for DB1976, 45% for DB2115, 60% for DB23313), in comparison to vehicle (FIG. 3F). The apoptotic cell fraction increased on average by 1.5-fold with DB1976, 2.2-fold with DB2115 and 2.5-fold with DB2313 (FIG. 3G).
structure (smiles),measurement,setting,value
N=C(N)c1ccc2nc(-c3ccc(-c4nc5ccc(C(=N)N)cc5[nH]4)[se]3)[nH]c2c1 [DB1976],"PU.1 occupancy on E2f1, Junb and Csf1r promoters",[1],decreased
same,mean decrease in number of viable cells,primary human AML cells,81%
same,mean decrease of clonogenic capacity,primary human AML cells,36%
same,average increase of apoptotic cell fraction,primary human AML cells,1.5 fold
"CC(C)NC(=N)c1ccc2nc(-c3ccc(OCc4cccc(COc5ccc(-c6nc7ccc(C(=N)NC(C)C)cc7[nH]6)cc5)c4F)cc3)[nH]c2c1 [DB2313, 3-Bis{4[4(5)-N-isopropylamidinobenzimidazolyl]phenoxymethyl]}-2-fluorobenzene tetrahydrochloride]","PU.1 occupancy on E2f1, Junb and Csf1r promoters",[1],decreased
same,mean decrease in number of viable cells,primary human AML cells,72%
same,mean decrease of clonogenic capacity,primary human AML cells,60%
same,average increase of apoptotic cell fraction,primary human AML cells,2.5 fold
N=C(N)c1ccc2nc(-c3ccc(OCCCCOc4ccc(-c5nc6ccc(C(=N)N)cc6[nH]5)cc4)cc3)[nH]c2c1 [DB2115],"PU.1 occupancy on E2f1, Junb and Csf1r promoters",[1],decreased
same,mean decrease in number of viable cells,primary human AML cells,68%
same,mean decrease of clonogenic capacity,primary human AML cells,45%
same,average increase of apoptotic cell fraction,primary human AML cells,2.2 fold
